In patent US9096624B2 (OSI Pharmaceuticals, LLC, priority 2009, dated 2015) one finds IC50 data, which are given here for 9 compounds.

One may read the IC50 as the concentration that gives 50% inhibition.

For experiment [1], the target named is T1, FAK (Homo sapiens, UniProt Q05397). Kind of experiment: Cell-based capture ELISA for inhibition of FAK autophosphorylation [pY397] in MiaPaCa2 cells. To be noted: MIA-PaCa2 cells, + 50% mouse plasma (Table 3); read-out: Mean FAK Cell Mechanistic IC50 + 50% mP MIA-PaCa2. The protocol:
Cell-Based Assays for Inhibition of FAK Autophosphorylation: MiaPaCa2 and U87MG
ELISA kit from Invitrogen (KHO0441).
Reagents Provided in Biosource FAK [pY397]
The cells were then suspended in cell assay medium.
A general note: In an ELISA, binding on a coated surface is turned into a signal by an enzyme label.

Experiment [2] deals with T1, FAK. Kind of experiment: biochemical.

T1 sequence (Q05397 whole entry): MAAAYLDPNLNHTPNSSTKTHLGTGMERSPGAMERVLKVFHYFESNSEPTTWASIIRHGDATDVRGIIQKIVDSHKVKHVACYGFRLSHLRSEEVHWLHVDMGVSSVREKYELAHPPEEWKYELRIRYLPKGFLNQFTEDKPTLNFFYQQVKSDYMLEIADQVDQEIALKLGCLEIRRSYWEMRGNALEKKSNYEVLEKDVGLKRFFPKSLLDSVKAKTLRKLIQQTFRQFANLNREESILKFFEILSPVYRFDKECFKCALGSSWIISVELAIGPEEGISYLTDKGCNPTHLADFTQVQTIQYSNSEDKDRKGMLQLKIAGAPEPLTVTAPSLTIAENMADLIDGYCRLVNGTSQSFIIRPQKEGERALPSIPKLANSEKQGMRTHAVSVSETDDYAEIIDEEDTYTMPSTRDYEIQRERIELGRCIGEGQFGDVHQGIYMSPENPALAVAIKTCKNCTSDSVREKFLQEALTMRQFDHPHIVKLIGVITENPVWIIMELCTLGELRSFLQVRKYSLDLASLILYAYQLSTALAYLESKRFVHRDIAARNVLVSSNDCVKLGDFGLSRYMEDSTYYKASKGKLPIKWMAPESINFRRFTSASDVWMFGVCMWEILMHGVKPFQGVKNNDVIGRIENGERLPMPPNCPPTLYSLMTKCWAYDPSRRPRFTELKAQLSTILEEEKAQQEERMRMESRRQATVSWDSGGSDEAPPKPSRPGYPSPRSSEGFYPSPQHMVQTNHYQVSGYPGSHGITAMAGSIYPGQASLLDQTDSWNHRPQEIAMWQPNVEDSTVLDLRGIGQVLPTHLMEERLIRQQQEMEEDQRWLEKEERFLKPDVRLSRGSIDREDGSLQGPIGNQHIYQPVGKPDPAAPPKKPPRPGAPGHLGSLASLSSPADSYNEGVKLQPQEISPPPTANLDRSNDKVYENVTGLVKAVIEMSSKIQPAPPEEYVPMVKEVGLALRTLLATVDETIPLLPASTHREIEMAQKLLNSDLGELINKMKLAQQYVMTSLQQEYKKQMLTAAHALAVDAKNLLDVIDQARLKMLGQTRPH

Regarding `CN1Cc2c(c(Nc3nc(Nc4ccc(CP(=O)(OCC(F)(F)F)OCC(F)(F)F)cc4)ncc3C(F)(F)F)ccc2[C@H]2CC[C@H](O)CC2)C1=O` [Example 165, Bis(2,2,2-trifluoroethyl) (4-{[4-{[7-(trans-4-hydroxycyclohexyl)-2-methyl-3-oxo-2,3-dihydro-1H-isoindol-4-yl]amino}-5-(trifluoromethyl)pyrimidin-2-yl]amino}benzyl)phosphonate], the IC50 at FAK [1] and against FAK [2] was below 1000 nM each time.

For `CCOP(=O)(Cc1ccc(Nc2ncc(C(F)(F)F)c(Nc3ccc([C@H]4CC[C@@H](OCC)CC4)c4c3C(=O)N(C)C4)n2)cc1)OCC` [Example 166, Diethyl (4-{[4-{[7-(cis-4-ethoxycyclohexyl)-2-methyl-3-oxo-2,3-dihydro-1H-isoindol-4-yl]amino}-5-(trifluoromethyl)pyrimidin-2-yl]amino}benzyl)phosphonate], the IC50 at FAK [1] and on FAK [2] was below 1000 nM in each case.

Regarding `CCOP(=O)(Cc1ccc(Nc2ncc(C(F)(F)F)c(Nc3ccc([C@H]4CC[C@@H](OCC)CC4)c4c3C(=O)N(C)C4)n2)c(OC)c1)OCC` [Example 167, Diethyl (4-{[4-{[7-(cis-4-ethoxycyclohexyl)-2-methyl-3-oxo-2,3-dihydro-1H-isoindol-4-yl]amino}-5-(trifluoromethyl)pyrimidin-2-yl]amino}-3-methoxybenzyl) phosphonate], the IC50 at FAK [1] and against FAK [2] was below 1000 nM each time.

Consider `CCCP(=O)(CCC)c1cccc(Nc2ncc(C(F)(F)F)c(Nc3ccc(-c4cnn(CCO)c4)c4c3C(=O)N(C)C4)n2)c1` [Example 168, 7-{[2-{[3-(Dipropylphosphoryl)phenyl]amino}-5-(trifluoromethyl)pyrimidin-4-yl]amino}-4-[1-(3-hydroxyethyl)-1H-pyrazol-4-yl]-2-methyl-2,3-dihydro-1H-isoindol-1-one], for which the IC50 on FAK [1] and on FAK [2] was below 1000 nM each time.

On to `CCOP(=O)(Cc1ccc(Nc2ncc(C(F)(F)F)c(Nc3ccc([C@H]4CC[C@H](OCC)CC4)c4c3C(=O)N(C)C4)n2)cc1)OCC` [Example 169, Diethyl (4-{[4-{[7-(trans-4-ethoxycyclohexyl)-2-methyl-3-oxo-2,3-dihydro-1H-isoindol-4-yl]amino}-5-(trifluoromethyl)pyrimidin-2-yl]amino}benzyl)phosphonate], for which the IC50 on FAK [1] and against FAK [2] was below 1000 nM throughout.

For the compound `CCOP(=O)(OCC)C(F)c1ccc(Nc2ncc(C(F)(F)F)c(Nc3ccccc3C(=O)NC)n2)cc1` (stereo not drawn) [Example 172, Diethyl [fluoro(4-{[4-{[2-(methylcarbamoyl)phenyl]amino}-5-(trifluoromethyl)pyrimidin-2-yl]amino}phenyl)methyl]phosphonate], the IC50 on FAK [1] and at FAK [2] was below 1000 nM throughout.

As for `CCOP(C)(=O)Cc1ccc(Nc2ncc(C(F)(F)F)c(Nc3ccc([C@H]4CC[C@H](O)CC4)c4c3C(=O)N(C)C4)n2)cc1` (stereo partly drawn) [Example 174, Ethyl (4-{[4-{[7-(trans-4-hydroxycyclohexyl)-2-methyl-3-oxo-2,3-dihydro-1H-isoindol-4-yl]amino}-5-(trifluoromethyl)pyrimidin-2-yl]amino}benzyl) methylphosphinate], the IC50 at FAK [1] and against FAK [2] was below 1000 nM in each case.

For the compound `CCOP(=O)(Cc1ccc(Nc2ncc(C(F)(F)F)c(Nc3ccc(-c4cnn(CCN(CC)CC)c4)c4c3C(=O)N(C)C4)n2)cc1)OCC` [Example 175, Diethyl [4-({4-[(7-{1-[2-(diethylamino)ethyl]-1H-pyrazol-4-yl}-2-methyl-3-oxo-2,3-dihydro-1H-isoindol-4-yl)amino]-5-(trifluoromethyl)pyrimidin-2-yl}amino)benzyl]phosphonate], the IC50 at FAK [1] and against FAK [2] was below 1000 nM in each case.

Consider `CCOP(=O)(Cc1ccc(Nc2ncc(C(F)(F)F)c(Nc3ccccc3C(=O)N3CCCC3)n2)cc1)OCC` [Example 176, Diethyl (4-{[4-{[2-(pyrrolidin-1-ylcarbonyl)phenyl]amino}-5-(trifluoromethyl)pyrimidin-2-yl]amino}benzyl)phosphonate], for which the values for the IC50 at FAK [1] and against FAK [2] were 1000 to 10000 nM and below 1000 nM, respectively.
